Laboratory results: patent US6500843B2, “Inhibitors of rotamase enzyme activity” (GPI NIL Holdings, Inc., priority 1995, dated 2002)
Like-named read-outs stand apart in the source and are kept apart here.

Key:
[1] = target: rotamase activity of FKBP-12 (Homo sapiens, UniProt P62942); assay: Rotamase inhibition (FKBP-12); type: biochemical
[2] = test system: chick dorsal root ganglion explant cultures; assay: Neurite outgrowth in chick dorsal root ganglion explant cultures; type: cell-based; conditions: for EC50: Gallus gallus
Experimental: Explants of chick DRG were cultured as described in FIG. 17 above. […] At 48 hrs., neurite outgrowth was quantitated and the cultures were photographed. Dorsal root ganglion were dissected from chick embryos of ten day gestation. […] Twenty-four hours later, the DRG's were treated with various concentrations of nerve growth factor, immunophilin ligands or combinations of NGF plus drugs. Forty-eight hours after drug treatment, the ganglia were visualized under phase contrast or Hoffman Modulation contrast with a Zeiss Axiovert inverted microscope. Photomicrographs of the explants were made, and neurite outgrowth was quantitated. […] Three to four DRGs are cultured per well, and each treatment was performed in duplicate.

recombinant FKBP-12 = recombinant FKBP-12 (Homo sapiens, UniProt P62942); assay: Inhibition of 3H-FK506 binding to recombinant FKBP-12; conditions: read-out: [3H]-FK506-FKBP12 (IC50)
Sequence of recombinant FKBP-12 (P62942 whole entry, species assumed): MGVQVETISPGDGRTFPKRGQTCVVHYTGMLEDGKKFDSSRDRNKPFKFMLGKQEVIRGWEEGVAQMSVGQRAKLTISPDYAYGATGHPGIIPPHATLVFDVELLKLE

[3] = test system: Sprague-Dawley rats, sciatic nerve crush; assay: Sciatic nerve axotomy (crush) model of nerve regeneration; type: in vivo, rat
Experimental: Six-week old male Sprague-Dawley rats were anesthetized, and the sciatic nerve exposed and crushed, at the level of the hip, by forceps. Test compounds or vehicle were administered subcutaneously just prior to the lesion and daily for the following 18 days. Sections of the sciatic nerve were stained with Holmes silver stain to quantify the number of axons, and Luxol fast blue to quantify the level of myelination. Eighteen days after lesion, there was a significant decrease in the number of axons (50% decrease as compared to non-lesioned control) and degree of myelination (90% decrease as compared to non-lesioned control) in animal treated with vehicle.

dorsal root ganglia = assay: Neurite outgrowth in rat embryonic day 16 dorsal root ganglia explants; type: cell-based; conditions: no added NGF
Experimental: Stage E16 embryos were removed from pregnant Sprague-Dawley rats and the dorsal root ganglia dissected. Whole ganglia explants were cultured in collagen-coated 35 mm dishes (Falcon) using N2 medium (Dulbecco's Modified Eagle medium and Ham's F12 medium mixed 1:1 and supplemented with progesterone, selenium, insulin, putrescine, glucose, and penicillin-streptomycin) at 37° C. in a 15% CO2 environment. […] Ganglia were observed every 2-3 days under phase-contrasting using an Olympus IMT-2 inverted microscope, and measurements of axon length were made. The axonal field of each ganglion was divided into four quadrants, and the length of the longest axons in each quadrant was measured in microns using an eye-piece micrometer. The average of these measurements was taken as the axon length for the ganglion.

PC-12 cells = assay: Neurite outgrowth in PC-12 cells in the presence of NGF; conditions: for Concentration for maximal effects on neurite extension: 4 days; for EC50: Rattus norvegicus
FKBP = FKBP (Rattus norvegicus, UniProt Q62658); assay: [3H]FK506 binding to PC-12 cell homogenates; conditions: untreated PC-12 cell homogenates, 250 pM radioligand
Sequence of FKBP (Q62658 whole entry): as the sequence (P62942 whole entry, species assumed) above, with P10S, M50T, T76I counted along it
Experimental: Cultures were scraped from the culture wells and homogenized in 10 volumes of 50 mM Tris-HCl, pH 7.4, 1 mM EDTA, 100 μg/ml phenylmethylsulfonylfluoride and centrifuged at 40,000×g for 20 min at 4° C. Protein was determined by the Coomassie blue dye binding assay using bovine serum albumin as a standard. […] The column was further washed with 0.4 ml of assay buffer, the eluates collected, mixed with Formula 963 (DuPont/NEN) and counted in a Beckman scintillation counter.

calcineurin = assay: Calcineurin inhibition; type: biochemical; conditions: YES/NO
[4] = Table I, read-out: Rotamase Inhibition Ki
[5] = Neuron, Table I, cultured sensory neurons, read-out: Neutrophic ED50 Chick DRGs
[6] = 30 mg/kg s.c. daily, 18 days after lesion
[7] = s.c. daily for 18 days following the lesion
[8] = PC-12, 96 h, read-out: Half-maximal stimulation of neurite extension
[9] = 0.1 ng/ml NGF, 48 hr, read-out: EC50 for stimulating nerve outgrowth in the ganglia

Sequence of rotamase activity of FKBP-12 (P62942 whole entry): as the sequence (P62942 whole entry, species assumed) above

Question: Which Ki [1, 4] does the source give for COc1ccc(CCCCOC(=O)[C@@H]2CCCCN2C(=O)Cc2cc(OC)c(OC)c(OC)c2)cc1 [Example 6] here?
Answer: 140 nM

Question: And the EC50 [2, 5]?
Answer: 25 nM

Question: COc1ccc(CCCCOC(=O)[C@@H]2CCCCN2C(=O)C(=O)c2cc(OC)c(OC)c(OC)c2)cc1 [Example 9] was tested. Which EC50 [2, 5] did it give?
Answer: 0.03 nM

Question: Which results are given for CCC(C)(C)C(=O)C(=O)N1CCCCC1C(=O)OCCCc1cc(OC)c(OC)c(OC)c1 (stereo not shown) [Example 13]?
Answer: IC50 (recombinant FKBP-12; Table 3): 4000 nM; Axon Number (% Control) [3, 6]: 100 % Control; Myelin Level [3, 6]: 50; Decrease in axon number as compared to non-lesioned control [3, 7]: 5%; Decrease in degree of myelination as compared to control [3, 7]: 50%; Ki [1, 4]: 25 nM

Question: For CC1(C)COC(=O)CCCCCCCCCOC(=O)[C@@H]2CCCCN2C(=O)C1=O [Example 19], which Ki [1, 4] is on record?
Answer: 12 nM

Question: And the EC50 [2, 5]?
Answer: 0.017 nM

Question: For CCOC(=O)C1CCCCN1C(=O)C(C)=O (stereo not shown) [Example 36], which Ki [1, 4] is on record?
Answer: > 10000 nM

Question: How did the Ki [1, 4] turn out when CCOC(=O)C1CCCCN1C(=O)C(=O)C(C)(C)CC (stereo not shown) [Example 41] was run?
Answer: 1300 nM

Question: CCOC(=O)C1CCCCN1C(=O)C(=O)c1ccccc1 (stereo not shown) [Example 50] was tested. Which Ki [1, 4] did it give?
Answer: > 10000 nM

Question: How did the Ki [1, 4] turn out when CCC(C)(C)C(=O)C(=O)N1CCCCC1C(=O)OCC=Cc1ccc(Cl)c(Cl)c1 (stereo not shown) [Example 90] was run?
Answer: 1800 nM

Question: What about the EC50 [2, 5] of the same compound?
Answer: 2500 nM

Question: Which results are given for CCC(C)(C)C(=O)C(=O)N1CCCCC1C(=O)OCC=Cc1cc(OC)c(OC)c(OC)c1 (stereo not shown) [Example 91]?
Answer: Ki [1, 4]: 28 nM; EC50 [2, 5]: 200 nM

Question: With CCC(C)(C)C(=O)C(=O)N1CCCCC1C(=O)OCC=Cc1ccccc1 (stereo not shown) [Example 92] as the compound, how does the Ki [1, 4] read?
Answer: 39 nM

Question: What about the EC50 [2, 5] of the same compound?
Answer: 90 nM

Question: With CCC(C)(C)C(=O)C(=O)N1CCCC[C@H]1C(=O)OCCCc1cc(OC)ccc1OC [Example 93] as the compound, how does the Ki [1, 4] read?
Answer: 75 nM

Question: How did the Ki [1, 4] turn out when CCC(C)(C)C(=O)C(=O)N1CCCC[C@H]1C(=O)OCCCc1ccc2c(c1)OCO2 [Example 94] was run?
Answer: 70 nM

Question: COc1ccc(CCCCOC(=O)[C@@H]2CCCCN2C(=O)C(=O)c2ccccc2)cc1 [Example 95] was tested. Which Ki [1, 4] did it give?
Answer: 165 nM

Question: With O=C(C(=O)N1CCCC[C@H]1C(=O)OCCCc1ccccc1)c1ccccc1 [Example 96] as the compound, how does the Ki [1, 4] read?
Answer: 740 nM

Question: How did the Ki [1, 4] turn out when CCC(C)(C)C(=O)C(=O)N1CCCC[C@H]1C(=O)OCCCc1cccnc1 [Example 98] was run?
Answer: 130 nM

Question: What about the EC50 [2, 5] of the same compound?
Answer: 75 nM

Question: For CCC(C)(C)C(=O)C(=O)N1CCCC[C@H]1C(=O)OC(CCCc1ccccc1)CCCc1ccccc1 [Example 99], which EC50 [2, 5] is on record?
Answer: 5 nM

Question: CCC(C)(C)C(=O)C(=O)N1CCCC[C@H]1C(=O)OCCCCc1ccc(OC)cc1 [Example 100] was tested. Which Ki [1, 4] did it give?
Answer: 60 nM

Question: Which results are given for CCC(C)(C)C(=O)C(=O)N1CCCCC1C(=O)OC(CCCc1ccccc1)CCc1ccc(OC)cc1 (stereo not shown) [Example 101]?
Answer: Ki [1, 4]: 15 nM; EC50 [2, 5]: 0.17 nM

Question: How did the Ki [1, 4] turn out when CCC(C)(C)C(=O)C(=O)N1CCCC[C@H]1C(=O)OCCCc1cc(OC)ccc1OC [Example 102] was run?
Answer: 12 nM

Question: What about the “Neurite outgrowth in photomicrographs” value ([2]; 1 pM, 100 pM and 100 nM (FIGS. 19-21)) of the same compound?
Answer: promoting neurite outgrowth

Question: And the EC50 [2, 5]?
Answer: 205 nM

Question: For CCC(C)(C)C(=O)C(=O)N1CCCC[C@H]1C(=O)OCCCc1ccc2c(c1)OCO2 [Example 103], which Ki [1, 4] is on record?
Answer: 120 nM

Question: What about the EC50 [2, 5] of the same compound?
Answer: 3 nM

Question: CCC(C)(C)C(=O)C(=O)N1CCCC[C@H]1C(=O)OC(CCCCc1ccccc1)c1ccccc1 (stereo partly shown) [Example 104] was tested. Which Ki [1, 4] did it give?
Answer: 20 nM

Question: COc1ccc(CCCCOC(=O)[C@@H]2CCCCN2C(=O)C(=O)C2CCCCC2)cc1 [Example 105] was tested. Which Ki [1, 4] did it give?
Answer: 103 nM

Question: With O=C(C(=O)N1CCCC[C@H]1C(=O)OCCCC1CCCCC1)C1CCCCC1 [Example 106] as the compound, how does the Ki [1, 4] read?
Answer: 760 nM

Question: What about the EC50 [2, 5] of the same compound?
Answer: 1 nM

Question: Which Ki [1, 4] does the source give for O=C(C(=O)N1CCCC[C@H]1C(=O)OCCCc1ccccc1)C1CCCCC1 [Example 107] here?
Answer: 210 nM

Question: And the EC50 [2, 5]?
Answer: 0.82 nM

Question: For C=CC[C@@H]1/C=C(\C)C[C@H](C)C[C@H](OC)[C@H]2O[C@@](O)(C(=O)C(=O)N3CCCC[C@H]3C(=O)O[C@H](/C(C)=C/[C@@H]3CC[C@@H](O)[C@H](OC)C3)[C@H](C)[C@@H](O)CC1=O)[C@H](C)C[C@@H]2OC [FK506], which “Concentration producing a noticeable increase in growth” value (dorsal root ganglia) is on record?
Answer: 1 nM

Question: And the “Concentration producing detectable augmentation of neurite outgrowth” value (dorsal root ganglia)?
Answer: 1 pM

Question: And the “Concentration required for maximal outgrowth” value (dorsal root ganglia)?
Answer: 1 pM

Question: What about the “Maximal enhancement of neurite outgrowth” value (PC-12 cells; 0.5 ng/ml NGF, 100 nM drug, 96 hours) of the same compound?
Answer: 2.5 fold

Question: What about the “Concentration for maximal effects on neurite extension” value (“Concentration for maximal effects” for short) (PC-12 cells; 0.5 ng/ml NGF) of the same compound?
Answer: 5 to 100 nM

Question: And the “Concentration eliciting the same maximal outgrowth observed with 50 ng/ml NGF” value (PC-12 cells; 1 ng/ml NGF, 48 hr)?
Answer: 1 nM

Question: What about the “Reduction of the NGF concentration needed to elicit maximal outgrowth” value (PC-12 cells; FK506 100 nM, 48 hr) of the same compound?
Answer: 20-50 fold

Question: And the EC50 (PC-12 cells; PC-12, 48 h, read-out: Half maximal effects on neurite outgrowth)?
Answer: ~0.1 nM

Question: And the EC50 (PC-12 cells; [8])?
Answer: 0.5 nM

Question: And the EC50 (PC-12 cells; PC-12, read-out: Neurite Outgrowth (ED50))?
Answer: 0.5 nM

Question: What about the IC50 (FKBP) of the same compound?
Answer: 1 to 2 nM

Question: What about the EC50 [2, 9] of the same compound?
Answer: 1 to 2 nM

Question: For CO[C@H]1C[C@@H]2CC[C@@H](C)[C@@](O)(O2)C(=O)C(=O)N2CCCC[C@H]2C(=O)O[C@H]([C@H](C)C[C@@H]2CC[C@@H](O)[C@H](OC)C2)CC(=O)[C@H](C)/C=C(\C)[C@@H](O)[C@@H](OC)C(=O)[C@H](C)C[C@H](C)/C=C/C=C/C=C/1C [Rapamycin], which “Concentration for maximal effects” value (PC-12 cells; 0.5 ng/ml NGF) is on record?
Answer: 10 to 100 nM

Question: And the “Stimulation of neurite outgrowth” value (PC-12 cells; 0.1-0.5 ng/ml NGF, 100 nM drug, 96 hours)?
Answer: 3-4 fold

Question: What about the EC50 (PC-12 cells; [8]) of the same compound?
Answer: 0.2 to 0.4 nM

Question: What about the EC50 [2, 9] of the same compound?
Answer: 1 nM

Question: With COC1CC2CCC(C)C(O)(O2)C(=O)C(=O)N2CCCCC2C(=O)OC(C(C)CC2CCC(O)C(OC)C2)CC(=O)C(C)C=C(C)C(O)C(OC)C(=O)C(C)CC(C)C2C=CC(C=C1C)n1c(=O)n(-c3ccccc3)c(=O)n12 (stereo not shown) [WAY-124466] as the compound, how does the IC50 (recombinant FKBP-12; Table 2) read?
Answer: 10 nM

Question: And the “Concentration for maximal effects” value (PC-12 cells; 0.5 ng/ml NGF)?
Answer: 100-1,000 nM

Question: And the EC50 (PC-12 cells; [8])?
Answer: ~10 nM

Question: What about the “Potentiation of neurite extension elicited by NGF” value (PC-12 cells; picomolar concentrations, 0.5 ng/ml NGF, 4 days (FIG. 15)) of the same compound?
Answer: potentiate neurite extension

Question: What about the “Calcineurin Inhibition” value (calcineurin) of the same compound?
Answer: fails to inhibit calcineurin

Question: And the Ki ([1]; Table 2, read-out: Rotamase (Ki))?
Answer: 12 nM

Question: What about the “Potentiation of NGF-dependent neurite production in sensory ganglia” value ([2]; 100 nM, plus or minus 0.1 ng/ml NGF, 48 hrs (FIG. 18)) of the same compound?
Answer: potentiate NGF-dependent neurite production

Question: Which “NGF concentration for maximal augmentation of neurite outgrowth” value (PC-12 cells; 48 hr) does the source give for NGF: nerve growth factor here?
Answer: 50 to 100 ng/mL

Question: And the “NGF concentration for half maximal outgrowth in the presence of FK506” value (PC-12 cells; FK506 100 nM, 48 hr)?
Answer: 0.1 ng/mL

Question: What about the “Neurite extension as % of maximal effects evident at 50 ng/ml NGF” value (PC-12 cells; NGF alone at 0.1 ng/ml) of the same compound?
Answer: about 15%
